Reference: US20230248814A1, “COMPOSITIONS AND METHODS FOR TREATING MERKEL CELL CARCINOMA (MCC) USING HLA CLASS I SPECIFIC EPITOPES” (The Broad Institute, Inc., priority 2020, published 2023)

Tests used:
Type in all cases: cell-based, human
[1] = tested on: MKL-1 cells; test: USP7 inhibitor flow cytometry for surface HLA-I in MKL-1 p53-WT control and p53-KO lines; details: MKL-1 TP53-KO and TP53-WT lines; 100 nM
Description: For MKL-1 USP7 inhibitor experiments, p53-WT control lines (WT, scrambled, AAVS1) and three p53-KO lines were treated with USP7 inhibitors and assessed by flow cytometry for surface HLA I as described above for MCC-301.

[2] = tested on: MCC lines (MCC-301, -277, -290, -320); test: USP7 inhibitor experiments: flow cytometry for surface HLA-I in MCC lines
[3] = tested on: MKL-1 cells; test: Cell cycle analysis (EdU/DAPI flow cytometry) of MKL-1 control or p53 KO cells; details: MKL-1 TP53-WT and TP53-KO; 100 nM; three days
Description: Cell cycle analysis. 1 million MKL-1 control or p53 KO cells were plated and treated with DMSO, XL177A (100 nM) or XL177B (100 nM) for three days. During the last hour of the three- day treatment, the cells were pulsed with 10 µM EdU nucleotide. The cells were collected by centrifugation, treated with Accutase™ (Stem Cell Technologies) to break apart clumps, washed with PBS and fixed using 4% Formaldehyde solution in PBS at Room temperature for 15 mins. Cells were washed with 1% BSA in PBS and resuspended in 70% ice cold ethanol and incubated at -20° C. overnight for additional fixing and permeabilization. The cells were stored in 70% ethanol at -20° C. until the day the data was acquired. On the day of data acquisition, the cells were collected by centrifugation and washed twice with PBS. The incorporated EdU in the cells were labeled with a CLICK reaction cocktail (1 mM CuSO4, 100 µM THPTA, 100 mM sodium ascorbate, and 2.2 µM Alexa 647 azide in PBS) at room temperature with rocking for 30 minutes. The samples were then washed with 1% BSA in PBS once followed by two washes with PBS and incubated with a 1 µg/ml DAPI, 100 ng/ml RNase A solution for one hour at Room temperature to stain the DNA. The samples were then passed through strainer tubes and analyzed using a BD Fortessa analyzer. The flow cytometry data was analyzed using the FlowJo Software. […]

[4] = tested on: MCC-301 cells; test: HLA-I-bound peptidome (TMT LC-MS/MS) of USP7 inhibitor treated MCC-301 cells
Description: Immunopeptidomes of USP7 inhibitor treated cell lines were eluted as described above, followed by labeling with TMT6 reagent (Thermo Fisher; 126-USP7iA, 127-WT, 128 USP7iA, 129 WT, 130-USP7iB, 131 USP7iB) and then pooled for subsequent fractionation using basic reversed phase fractionation with increasing concentrations of acetonitrile (10%, 15% and 50%) in 5 mM ammonium formate (pH 10) and analysis on an Orbitrap Exploris 480 with FAIMSpro. Data acquisition parameters were as above with NCE set to 34 and 2 second dynamic exclusion.
Mass spectra were interpreted using Spectrum Mill software package v7.1 pre-Release (Broad Institute, Cambridge, MA). […] Merging of similar spectra with the same precursor m/z acquired in the same chromatographic peak was disabled. MS/MS spectra were searched against a protein sequence database that contained 90,904 entries, including all UCSC Genome Browser genes with hg19 annotation of the genome and its protein coding transcripts (52,788 entries), common human virus sequences (30,181 entries), recurrently mutated proteins observed in tumors from 26 tissues (4,595 entries), 264 common laboratory contaminants as well as protein sequences containing somatic mutations detected in MCC cell lines (3,076 entries). MS/MS search parameters included: no-enzyme specificity; ESI-QEXACTIVE-HCD-HLA-v3 instrument scoring; fixed modification: […]; variable modifications: oxidation of methionine, carbamidomethylation of cysteine and pyroglutamic acid at peptide N-terminal glutamine; precursor mass tolerance of ±10 ppm; product mass tolerance of ±10 ppm, and a minimum matched peak intensity of 30%. Peptide spectrum matches (PSMs) for individual spectra were automatically designated as confidently assigned using the Spectrum Mill auto-validation module to apply target-decoy based FDR estimation at the PSM level of <1% FDR. Peptide auto-validation was done separately for each sample with an auto thresholds strategy to optimize score and delta Rank1 - Rank2 score thresholds separately for each precursor charge state (1 through 4) across all LC-MS/MS runs per sample. […] Peptide and PSM exports were filtered for contaminants including potential carry over tryptic peptides and peptides identified in a blank bead sample. For TMT-labeled samples, peptides derived from keratin proteins were removed and TMT intensity values were normalized to the global median. P-values were calculated using in house software based on the limma package in R.

[5] = 100 nM, 3 days, two MCPyV+ lines (MCC-301, -277)

CN1CCN(CCC(=O)Nc2ccc3c(=O)n(CC4(O)CCN(C(=O)[C@@H](CCCNC(=O)c5ccc6c(Cl)c7c(nc6c5)CCCC7)Cc5ccccc5)CC4)cnc3c2)CC1 [XL177A]
surface HLA-I relative to XL177B and DMSO [1]: increased surface HLA-I | increase in expression of surface HLA-I relative to DMSO (mean) [2, 5]: 2.0 fold | increase in expression of surface HLA-I relative to DMSO (range) [2, 5]: 1.78 - 2.27 fold | increase in MFI (HLA-ABC) by flow cytometry ([2]; MCC-301, 100 nM, 4 days): greater than twofold increase | HLA-I levels ([2]; MCPyV- line MCC-290, 3 days): more modest increase in HLA-I levels | HLA-I levels ([2]; MCPyV- line MCC-320, 3 days): but not MCC-320 | cell cycle phase distribution [3]: slight cell cycle shifts from S to G1 phase | abundances of HLA-I displayed peptides compared to XL177B and untreated cells [4]: higher abundances of displayed peptides | frequency of peptides displayed on each HLA-I gene (HLA-A, -B, -C) [4]: did not affect | peptides more abundant than in untreated cells, out of 282 significantly differing (P < 0.05) [4]: 270 peptides | share of the 282 significantly differing peptides more abundant than in untreated cells [4]: 95.7%
